Like-named read-outs stand apart in the source and are kept apart here.
Columns and labels:
wild-type T. gondii = assay: Fluorescent T. gondii growth assay, wild-type strain; format: cell-based, Toxoplasma gondii
Description: (§1) Wild-type T. gondii and T. gondii-ΔHXGPRT parasites were transfected with plasmid ptubYFPYFsagCAT [37] which drives constitutive cytoplasmic expression of two copies of the yellow fluorescent protein. Similarly, plasmid pCTR2T [38] was transfected into T. gondii-CpIMPDH resulting in constitutive cytoplasmic expression of a tandem of the tomato variant of the red fluorescent protein [39]. Fluorescent parasites were selected and cloned by cell sorting using a MoFlo Legacy instrument (Beckman Coulter, Inc). Growth of fluorescent clones was monitored in 96 well plates as previously described. Briefly, fluorescence was read daily with a SpectraMax M22/M2e (Molecular Devices) plate reader (Ex 485, Em 530) for 6–7 days. For each of the three fluorescent T. gondii clones percent growth inhibition was calculated on a day within the exponential phase of growth for the purpose of determining an IC50 for each compound.
(§2) Supplementary file pntd.0000794.s002.tif: Figure S2 Obtaining an EC50 value for T. gondii growth. Fluorescent T. gondii parasites are seeded into 96-well plates and spiked with test compound. Fluorescence is measured daily with a SpectraMax M22/M2e (Molecular Devices) plate reader for 6–7 days. The fluorescence readings on a day during the exponential phase of the growth curve, for example day 4 in A, are used to calculated percent growth inhibition. These values are fitted using the 4 parameter model y = D+(A–D)/(1+(x/C)^B) where D is the minimum value, A is the maximum value, C is the EC50 and B is the Hill coefficient, using the SoftMax Pro v5 software, as illustrated in B. The absolute EC50 is recorded at the x intercept where y = 50. (0.33 MB TIF) Click here for additional data file.

T. gondii-ΔHXGPRT = assay: Fluorescent T. gondii growth assay, ΔHXGPRT strain; format: cell-based; conditions: Toxoplasma gondii, read-out: T. gondii model EC50 ΔHXGPRT, T. gondii-ΔHXGPRT
Description: as §1, §2

T. gondii-CpIMPDH = assay: Fluorescent T. gondii growth assay, CpIMPDH reporter strain; format: cell-based, Toxoplasma gondii; conditions: for Selectivity = EC50(T. gondii-wild-type)/EC50(T. gondii-CpIMPDH): Figure 5 Sel
Description: as §1
To facilitate screening of antiparasitic activity, we constructed a T. gondii reporter parasite that mirrors the Cryptosporidium purine metabolism. Figure 1 summarizes the main differences between the two parasites in this pathway. We started with a T. gondii knockout mutant that, like C. parvum, lacks the ability to salvage xanthine and guanine via HXGPRT (T. gondii-ΔHXGPRT [41]) and introduced the CpIMPDH gene under the control of a T. gondii promoter. Next the native T. gondii IMPDH gene was disrupted by replacing the entire coding sequence with a chloramphenicol acetyl transferase cassette using a new cosmid-based gene targeting approach. […] This manipulation created strain T. gondii-CpIMPDH-ΔHXGPRT-ΔTgIMPDH. Lastly, we introduced a fluorescent protein cassette and isolated stable transgenic parasites by cell sorting. The resulting strain is referred to as T. gondii-CpIMPDH. […] We similarly engineered fluorescent versions of wild-type T. gondii and T. gondii-ΔHXGPRT to serve as controls.
as §2

HCT-8 cells = assay: Fluorescent HCT-8 host cell growth assay; format: cell-based, human; conditions: for activity at 25 µM: Homo sapiens, HCT-8, compound at 25 μM, relative to DMSO alone; for inhibition of HCT-8 cell growth: at 12.5 µM and 25 µM; for effect on host cell (HCT-8) growth: in words
Description: HCT-8 cells were transfected with plasmid pmaxGFP (Amaxa) using Lipofectamine (Invitrogen). Fluorescent lines were then selected and cloned using cell sorting. Confluent monolayers of pmaxGFP expressing cells were harvested from T75 flasks and passed through a 40 µm cell strainer. Cells were seeded at 4000 cells per well into black, optical quality, thin bottom, 96-well plates. All test compounds were diluted in DMSO as described. The fluorescence was read daily with a SpectraMax M22/M2e (Molecular Devices) plate reader (Ex 485, Em 530) for 6–7 days. Percent inhibition was calculated on a day within the exponential phase of growth.

C. parvum = assay: High-content imaging C. parvum growth assay (FITC-VVL); format: cell-based, Cryptosporidium parvum; conditions: for EC50: Cryptosporidium parvum, HCT-8, 48 h, growth in HCT-8 cells, 48 hours; for potency relative to paromomycin: anticryptosporidial activity
Description: The human ileocecal adenocarcinoma epithelial cell line, HCT-8, was used to support C. parvum infection in vitro. HCT-8 cells were maintained in RPMI-1640 (Hyclone) supplemented with 10% FBS, 1 mM sodium pyruvate, 50 U/m penicillin, 50 µg/ml streptomycin, and amphotericin B. Cryptosporidium parvum oocysts were a kind gift from either Dr. Mead (Emory University) or Dr. Kissinger (University of Georgia). HCT-8 cells (2×10^5) were seeded into black, optical quality, thin bottom, 96-well plates (DB Falcon) to achieve a 70% confluent monolayer on the day of infection. To facilitate oocyst excystation, a procedure described by Gut et al., was followed. Briefly, oocysts were washed twice with 1 ml of PBS (pH 7.2), incubated for 10 minutes at 37°C in 1 ml 10 mM of HCl and then incubated for a further 10 minutes in 0.2 ml of 200 µM sodium taurocholate at 15°C [40]. This oocyst suspension was diluted directly with DMEM (Hyclone) supplemented with 2% FBS, 50 U/ml penicillin, 50 µg/ml streptomycin, amphotericin B and 0.2 mM L-glutamine (infection medium) to inoculate host cell monolayers at 5×10^5 oocysts per well. Host cell monolayers were incubated for 3 hours at 37°C prior to removal of unexcysted oocysts by aspiration and PBS wash. Infection medium was then added to the monolayers and infection was allowed to progress for 48 hours.
The VVL IFA was performed in a 96-well format. Following 48 hours of culture C. parvum infected HCT-8 cells were washed with PBS and fixed with 0.2 ml/well of 3% paraformaldehyde/PBS, permeabilized with 0.25% Triton-X-100/PBS and blocked with 4% BSA/PBS. 0.1 ml of fluorescein (FITC)-conjugated VVL (Vector Labs 0.5 µg/ml) in 1% BSA/PBS was applied to wells and incubated for 45 minutes. The plates were washed twice with 200 µl/well of PBS. In the first wash DAPI was included at 0.1 µg/ml. Finally 200 µl/well of PBS was added to the plates prior to storage at 4°C protected from light.
Confocal images were acquired using a BD Biosciences Bioimager P435. The instrument was programmed to automatically change position and focus, capture montage images of 9–16, 40× fields per well, and then compress and save the image files. Object finding algorithms were developed for the recognition of FITC-VVL labelled C. parvum parasites and DAPI labelled host cell nuclei using Attovision Software (BD Biosciences). Briefly, to identify FITC-VVL labelled parasites, the object finding algorithm included, a flat field correction, a polygon shape setting, a 3×3 rolling ball filter, manual pixel intensity thresholding (100 min – 4095 max), and minimum and maximum object size cut-offs of 5 pixels and 350 pixels respectively. The algorithm optimised for finding DAPI labelled host cell nuclei also included flat field correction and polygon shape setting, but applied a 25×25 rolling ball filter which is more suitable for larger objects, an automated pixel intensity threshold, minimum and maximum object size cut-offs of 200 pixels and 4000 pixels respectively, and a watershed step with an erosion factor of 8 to aid in the separation of adjacent densely packed nuclei. Note that the intensity and area size cut off exclude detection of the much smaller parasite nuclei (the human genome is three hundred times larger than the C. parvum genome).
The object finding analysis steps described above recorded the number and area of objects per montage image. The output files along with a plate map file were then passed to an automated analysis pipeline (Pipeline Pilot Software, Accelrys) to calculate the mean number of parasites, the ratio of parasite number to host cell nuclei number, the mean area of parasites and host cell nuclei by well, and the percentage growth by treatment as compared to the no drug control. These analyses were exported in graphical format for each plate and the numerical values tabulated in html format. […]

CpIMPDH = CpIMPDH (Cryptosporidium parvum, UniProt Q8T6T2); conditions: cited from earlier work
[1] = Toxoplasma gondii, wild-type T. gondii, no added xanthine, read-out: T. gondii model EC50 WT
[2] = wild-type T. gondii, no added xanthine, read-out: T. gondii model EC50 WT
[3] = Toxoplasma gondii, read-out: T. gondii model EC50 CpIMPDH, T. gondii-CpIMPDH, absence of xanthine
[4] = read-out: CpIMPDH Inhibition IC50 - BSA

Sequence of CpIMPDH (Q8T6T2 whole entry): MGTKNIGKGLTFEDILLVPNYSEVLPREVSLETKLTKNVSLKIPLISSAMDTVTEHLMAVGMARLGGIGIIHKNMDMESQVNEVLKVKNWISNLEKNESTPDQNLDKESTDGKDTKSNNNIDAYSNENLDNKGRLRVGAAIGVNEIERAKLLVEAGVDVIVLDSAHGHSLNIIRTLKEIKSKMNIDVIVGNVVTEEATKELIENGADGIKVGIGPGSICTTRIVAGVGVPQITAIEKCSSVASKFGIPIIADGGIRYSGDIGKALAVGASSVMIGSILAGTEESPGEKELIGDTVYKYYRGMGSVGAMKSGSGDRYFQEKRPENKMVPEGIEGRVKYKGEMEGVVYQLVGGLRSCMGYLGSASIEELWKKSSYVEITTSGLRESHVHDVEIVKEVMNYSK

SMILES	EC50 (wild-type T. gondii; [1]) [µM]	EC50 (wild-type T. gondii; [2]) [µM]	EC50 (T. gondii-ΔHXGPRT) [µM]	selectivity for the T. gondii-CpIMPDH parasite over wild-type T. gondii (T. gondii-CpIMPDH) [fold]	Selectivity = EC50(T. gondii-wild-type)/EC50(T. gondii-CpIMPDH) (T. gondii-CpIMPDH)	EC50 (T. gondii-CpIMPDH; [3]) [µM]	activity at 25 µM (HCT-8 cells) [%]	inhibition of HCT-8 cell growth (HCT-8 cells)	EC50 (C. parvum) [µM]	IC50 (CpIMPDH; read-out: CpIMPDH Inhibition IC50 + BSA) [µM]	effect on host cell (HCT-8) growth (HCT-8 cells)	IC50 (CpIMPDH; [4]) [µM]	potency relative to paromomycin (C. parvum) [×]	EC50 (wild-type T. gondii; Toxoplasma gondii, media supplemented with xanthine (0.33 mM), read-out: EC50 wild-type T. gondii with xanthine) [µM]	CpIMPDH inhibition by MPA (CpIMPDH; at concentrations active against TgIMPDH)	EC50 (T. gondii-CpIMPDH; read-out: T. gondii model EC50 CpIMPDH, T. gondii-CpIMPDH, absence of xanthine) [µM]	IC50 (CpIMPDH; in the presence of BSA, values marked c, read-out: CpIMPDH Inhibition IC50 + BSA) [µM]	IC50 (CpIMPDH; without BSA, values marked c, read-out: CpIMPDH Inhibition IC50 - BSA) [µM]
CC(Oc1cccc2c1ccc[n+]2[O-])c1cn(-c2ccc(Cl)cc2)nn1 (centres unmarked) [Compound A102]	23 ± 3	≥ 20	20 ± 5	≥ 36	76	0.3 ± 0.1	62	inhibit HCT-8 cell growth significantly	12 to 25	0.06 ± 0.02	–	–	–	–	–	–	–	–
CC(Oc1ccnc2ccccc12)c1cn(-c2ccc(Cl)cc2)nn1 (centres unmarked) [Compound A89]	4.9 ± 0.9	–	6 ± 2	–	14	0.4 ± 0.2	43 ± 2	–	< 13	–	–	–	–	–	–	–	–	–
CCCC(=O)[O-].[Na+] [sodium butyrate, reference compound]	–	–	–	–	–	–	–	–	–	–	did inhibit HCT-8 growth in a dose-dependent manner	–	–	–	–	–	–	–
C[C@H](Oc1ccnc2ccccc12)c1cn(-c2ccc(C#N)c(Cl)c2)nn1 [Compound A108]	5	–	–	–	1.3	3.9	47 ± 14	–	12 to 25	–	–	–	–	–	–	–	–	–
CC(Oc1cc[n+]([O-])c2ccccc12)c1cn(-c2ccc(Cl)cc2)nn1 (centres unmarked) [Compound A100]	> 25	≥ 20	≥ 25	≥ 36	–	0.5	44 ± 10	inhibit HCT-8 cell growth significantly	12 to 25	–	–	0.03 ± 0.01	–	–	–	–	–	–
C[C@@H](Oc1cc[n+]([O-])c2ccccc12)c1cn(-c2ccc(Cl)cc2)nn1 [Compound A110]	23 ± 2	–	> 25	≥ 36	> 120	< 0.2	94 ± 12	–	< 0.8	–	–	–	> 100	–	–	–	–	–
COc1c(C)c2c(c(O)c1C/C=C(\C)CCC(=O)O)C(=O)OC2 [MPA, mycophenolic acid, reference compound]	2.6	–	0.29	–	–	> 65	–	–	–	–	–	–	–	≥ 78	not inhibited	–	–	–
C[C@@H](Oc1ccnc2ccccc12)c1cn(-c2ccc(Cl)c(Cl)c2)nn1 [Compound A105]	–	–	–	–	2.9	–	81 ± 13	–	6 to 13	–	do not inhibit host cell growth	–	–	–	–	–	–	–
CC(Oc1ccnc2ccccc12)c1cn(-c2ccc(Cl)c(Cl)c2)nn1 (centres unmarked) [Compound A90]	5 ± 3	≤ 10	–	–	1.5	–	77 ± 5	–	6 to 13	–	do not inhibit host cell growth	–	–	–	–	–	–	–
CC(Oc1ccc(Cl)c2ccccc12)c1cn(-c2ccc(Cl)cc2)nn1 (centres unmarked) [Compound A82]	5 ± 2	≤ 10	–	–	0.9	–	108 ± 2	–	6 to 13	–	do not inhibit host cell growth	0.09 ± 0.03	–	–	–	≤ 10	–	–
CC(Oc1ccnc2ccccc12)c1cn(-c2ccc(C#N)c(Cl)c2)nn1 (centres unmarked) [Compound A92]	9 ± 2	–	8 ± 4	–	1.6	5 ± 1	47 ± 1	–	3 to 6	–	–	–	–	–	–	–	–	–
CC(Oc1cc[n+]([O-])c2ccccc12)c1cn(-c2ccc(Cl)c(Cl)c2)nn1 (centres unmarked) [Compound A103]	19 ± 4	≥ 20	17 ± 4	≥ 36	36	0.5 ± 0.4	33 ± 6	inhibit HCT-8 cell growth significantly	< 0.8	–	–	–	> 100	–	–	–	–	–
C[C@H](Oc1ccnc2ccccc12)c1cn(-c2ccc(Cl)c(Cl)c2)nn1 [Compound A107]	6	–	7	–	3.1	2.4	64 ± 16	–	< 13	–	–	–	–	–	–	–	–	–
C[C@@H](Oc1cncc2ccccc12)c1cn(-c2ccc(Cl)cc2)nn1 [Compound A98]	2.8 ± 0.1	–	2.3 ± 0.6	–	> 12	< 0.2	65 ± 7	–	3 to 6	–	–	–	–	–	–	–	0.03 ± 0.001	0.009 ± 0.001
